Laboratory results from the supplement of paper PMC8967900.

Key:
Experiment in all cases: selective drug sensitivity score (sDSS, relative to normal bone marrow) (sDSS (score)); higher = more potent and effective on the cell line relative to normal bone marrow cells
Conditions in all cases: 72 h
[1] = system: 697
[2] = system: CCRF-CEM
[3] = system: CCRF-HSB2
[4] = system: COG-LL-332h
[5] = system: COG-LL-402h
[6] = system: HAL-01
[7] = system: KARPAS-45
[8] = system: KASUMI-2
[9] = system: KOPN-8
[10] = system: LC4-1
[11] = system: MHH-CALL-3
[12] = system: MHH-CALL-4
[13] = system: MOLT-16
[14] = system: NALL-1
[15] = system: NALM-6
[16] = system: PF-382
[17] = system: RPMI-8402
[18] = system: SEM cells
[19] = system: SUP-B15
[20] = system: TMD5
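Also: ALL cell lines in 384-well plates, five doses spanning 10,000-fold, each plate scaled between vehicle and 100 µmol/L benzalkonium chloride controls, sDSS an adapted area-under-curve metric.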

SMILES	selective drug sensitivity score [1]	selective drug sensitivity score [2]	selective drug sensitivity score [3]	selective drug sensitivity score [4]	selective drug sensitivity score [5]	selective drug sensitivity score [6]	selective drug sensitivity score [7]	selective drug sensitivity score [8]	selective drug sensitivity score [9]	selective drug sensitivity score [10]	selective drug sensitivity score [11]	selective drug sensitivity score [12]	selective drug sensitivity score [13]	selective drug sensitivity score [14]	selective drug sensitivity score [15]	selective drug sensitivity score [16]	selective drug sensitivity score [17]	selective drug sensitivity score [18]	selective drug sensitivity score [19]	selective drug sensitivity score [20]
C[C@]12CC[C@H](O)CC1=CC[C@@H]1[C@@H]2CC[C@]2(C)C(c3cccnc3)=CC[C@@H]12 [Abiraterone] (top concentration 5000 nM)	-0.12	-0.12	-0.12	-0.12	-0.12	-0.12	-0.12	-0.12	1.78	1.18	-0.12	0.28	1.28	3.08	-0.12	-0.12	-0.12	-0.12	-0.02	-0.12
Cc1cccc(-c2nn3c(c2-c2ccnc4ccc(C(N)=O)cc24)CCC3)n1 [Galunisertib] (top concentration 1000 nM)	0	0	0	0	0	1.6	0	0	0	0	0	0	0	0	0	0	0	0.1	0	0
COc1cc(NS(C)(=O)=O)ccc1Nc1c2ccccc2nc2ccccc12 [Amsacrine] (top concentration 10000 nM)	20.6	15.1	22.5	20.1	16.8	14.1	1.76	21.7	18.3	15.5	23.5	13.2	27.1	5.66	10.7	10.9	14.4	12.8	23.6	3.86
CC(C)n1cnc2c(NCCc3ccc(O)cc3)nc(-c3csc4ccccc34)nc21 [StemRegenin_1] (top concentration 10000 nM)	-0.5	1.4	1.9	0.8	-1.8	2.4	3.9	-1.8	0.1	-0.1	-1.8	-1.8	4.4	-1.4	1.1	0.9	-0.7	-0.5	-0.2	-1.8
CC1(C)CNc2cc(NC(=O)c3cccnc3NCc3ccncc3)ccc21 [Motesanib] (top concentration 10000 nM)	-0.22	-0.22	1.08	-0.22	1.98	-0.22	-0.22	-0.22	-0.22	-0.22	-0.22	-0.22	-0.22	-0.22	1.28	-0.22	-0.22	-0.22	-0.22	-0.22
CNC(=O)c1cccc2cc(Oc3ccnc4cc(OCC5(N)CC5)c(OC)cc34)ccc12 [Lucitanib] (top concentration 10000 nM)	5.48	3.08	3.88	2.88	3.58	3.88	3.18	3.48	6.38	1.68	-0.62	-0.62	3.98	0.58	1.58	1.38	1.88	4.98	3.48	0.98
COC(=O)c1ccc([C@H]2c3[nH]c4ccccc4c3C[C@H](C(=O)OC)N2C(=O)CCl)cc1 [RSL3] (top concentration 10000 nM)	0	0.2	0	0	0	3.5	0	0	0	0	0.7	0	0	5.2	1.5	0.9	1.2	0	0	0
O=C1c2c(O)ccc(O)c2C(=O)c2c(NCCNCCO)ccc(NCCNCCO)c21 [Mitoxantrone] (top concentration 1000 nM)	15.6	10.8	14.2	11.7	15.8	5.64	-1.66	12.3	16.3	6.74	14.4	11.1	17	-5.06	2.44	-1.86	6.34	8.04	15.7	4.54
COc1cc(C)[nH]c(=O)c1CNC(=O)c1c(C)n([C@H](C)C2CCOCC2)c2ccccc12 [CPI-360] (top concentration 10000 nM)	0	0	0	0	0	1.3	0	0	0	0	0	0	0	0	0	0	0	0	0	0
